Molecules are shown by their SMILES.

T1 sequence (P00327 2-375 limits assumed): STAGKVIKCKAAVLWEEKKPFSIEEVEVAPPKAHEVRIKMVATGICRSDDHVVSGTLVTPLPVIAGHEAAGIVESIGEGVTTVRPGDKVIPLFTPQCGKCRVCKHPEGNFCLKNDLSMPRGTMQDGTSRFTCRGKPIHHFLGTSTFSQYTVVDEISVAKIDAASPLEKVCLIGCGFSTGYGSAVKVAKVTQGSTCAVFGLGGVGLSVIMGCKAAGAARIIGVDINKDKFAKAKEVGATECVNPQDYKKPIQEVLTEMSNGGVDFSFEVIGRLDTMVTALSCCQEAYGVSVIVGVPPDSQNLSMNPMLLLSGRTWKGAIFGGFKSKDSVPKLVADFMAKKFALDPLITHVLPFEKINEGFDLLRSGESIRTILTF

This assay concerns the target T1, horse liver alcohol dehydrogenase (Equus caballus, UniProt P00327).
T1 construct: 0.5 mL horse liver-alcohol dehydrogenase solution (Sigma-1 mg/mL); purchased Sigma; host or cells: horse liver
In words: Dissolved oxygen decrease on adding alcohol substrates to the cofactor regeneration system (NAD, HL-ADH, acetaldehyde, alcohol oxidase). The assay is classed as biochemical. The following applies: relative decrease in dissolved oxygen level upon addition of 0.1 mL of 2.5 vol % solution of the alcohol; phosphate buffer pH 8. As to the method: The following reagents were admixed in a small beaker: • 2.7 mL aerated potassium phosphate buffer (0.05 M; pH 8) • 0.01 mL of NAD solution (10 mg/mL or 0.025 M) • 0.5 mL horse liver-alcohol dehydrogenase solution (Sigma-1 mg/mL) • 0.1 mL of 1 M acetaldehyde • 0.1 mL of saturated alcohol oxidase (~ 10 mg/mL, prepared as described in example I)
A dissolved oxygen probe, connected to an electronic signal differentiator, was placed in the above prepared solution. The relative decrease in dissolved oxygen level (ADO) was monitored upon addition of 0.1 mL of 2.5 vol % solutions of several alcohols: […]
For `OCCCCO` [1,4-butanediol], the ΔDO result is recorded as “Yes”.
With `CCC(C)O` (stereo not shown) [2-butanol], the ΔDO entry is given as “Yes”.
As to `OC=CCCO` [3-buten-1,4-diol], the ΔDO entry was “Yes”.
Regarding `C=CC(C)O` (stereo not shown) [3-buten-2-ol], the ΔDO entry is “Yes”.
For the compound `C=CCCCCCCCCO` [9-decen-1-ol], the ΔDO entry is recorded as “Yes”.
The result for `OC1CCCCC1` [cyclohexanol] reads “Yes”; that for `CC(C)(C)O` [tertiary butanol], “No”.

These data come from patent EP0118750A2, “Regeneration of NAD(P) cofactor” (PHILLIPS PETROLEUM COMPANY, priority 1983, dated 1984).
